How the values were obtained:
Type in all cases: cell-based
vanilloid receptor (VR1) [1] = target: T1, vanilloid receptor (VR1) (Homo sapiens, UniProt Q8NER1); experiment: Functional FLIPR Ca2+ influx assay in CHO-K1 cells transfected with the VR1 gene, capsaicin stimulus (Pharmacological Method II)
T1 construct: expressed in transfected cells; host or cells: CHO-K1 cells (ECACC), stably transfected
From the text: The agonistic or antagonistic action of the substances to be examined on the vanilloid receptor (VR1) can alternatively be determined by the following assay. According to this assay the Ca^2+ influx through the canal is quantified with the aid of a Ca^2+-sensitive dye (type Fluo-4, Molecular Probes, Europe BV, Leiden, Netherlands) in a fluorescent imaging plate reader (FLIPR, Molecular Devices, Sunnyvale, USA).
Chinese hamster ovary cells (CHO-K1 cells, European Collection of Cell Cultures (ECACC) UK) are stably transfected with the VR1 gene. For carrying out functional investigations, these cells are plated on poly-D-lysine-coated, black 96-well plates with a clear bottom (BD Biosciences, Heidelberg, Germany) in a density of 25,000 cells/well. The cells are incubated overnight at 37° C. and 5% CO2 in a culture medium (Nutrient Mixture ‘am’s F12, 10% by volume of FCS (fetal calf serum), 18 μg/ml of L-proline). On the following day the cells are incubated with Fluo-4 (Fluo-4 2 μM, Pluronic F127 0.01 by volume, Molecular Probes in HBSS (Hank's buffered saline solution), Gibco Invitrogen GmbH, Karlsruhe, Germany) for 30 minutes at 37° C. The plates are then washed 3 times with HBSS buffer and, after another incubation over a period of 15 minutes at room temperature, are used in the FLIPR for Ca^2+ measurement. The Ca^2+-dependent fluorescence is measured prior to and following the addition of the substances being examined (wavelength λex=488 nm, λem=540 nm). Quantification is carried out by measuring the highest fluorescence intensity (PC, fluorescence counts) over time.
The FLIPR protocol consists of 2 substance additions. First of all, the substances to be tested (10 μM) are pipetted onto the cells and the Ca^2+ influx is compared with the control (capsaicin 10 μM) (percentage activation based on the Ca^2+ signal following addition of 10 μM of capsaicin). Following incubation over a period of 5 minutes 100 nM of capsaicin are applied and the influx of Ca^2+ is likewise determined.
Desensitizing agonists and antagonists led to a suppression of the Ca^2+ influx. The percentage inhibition compared with the maximum attainable inhibition using 10 μM of capsaicin is calculated.
Based on the percentage displacement effected by different concentrations of the compounds of the general formula I to be tested, IC50 inhibition concentrations are calculated which cause 50 percent displacement of capsaicin. Conversion using the Cheng Prusoff equation gave Ki values for the test substances (Cheng, Prusoff; Bioch. Pharmacol. 22, 3099-3108, 1973).

[2] = target: vanilloid receptor 1 (VR1/TRPV1-Receptor) (Homo sapiens, UniProt Q8NER1); experiment: VR1 functional assay following pH-stimulus
Chain of vanilloid receptor 1 (VR1/TRPV1-Receptor) (Q8NER1 whole entry): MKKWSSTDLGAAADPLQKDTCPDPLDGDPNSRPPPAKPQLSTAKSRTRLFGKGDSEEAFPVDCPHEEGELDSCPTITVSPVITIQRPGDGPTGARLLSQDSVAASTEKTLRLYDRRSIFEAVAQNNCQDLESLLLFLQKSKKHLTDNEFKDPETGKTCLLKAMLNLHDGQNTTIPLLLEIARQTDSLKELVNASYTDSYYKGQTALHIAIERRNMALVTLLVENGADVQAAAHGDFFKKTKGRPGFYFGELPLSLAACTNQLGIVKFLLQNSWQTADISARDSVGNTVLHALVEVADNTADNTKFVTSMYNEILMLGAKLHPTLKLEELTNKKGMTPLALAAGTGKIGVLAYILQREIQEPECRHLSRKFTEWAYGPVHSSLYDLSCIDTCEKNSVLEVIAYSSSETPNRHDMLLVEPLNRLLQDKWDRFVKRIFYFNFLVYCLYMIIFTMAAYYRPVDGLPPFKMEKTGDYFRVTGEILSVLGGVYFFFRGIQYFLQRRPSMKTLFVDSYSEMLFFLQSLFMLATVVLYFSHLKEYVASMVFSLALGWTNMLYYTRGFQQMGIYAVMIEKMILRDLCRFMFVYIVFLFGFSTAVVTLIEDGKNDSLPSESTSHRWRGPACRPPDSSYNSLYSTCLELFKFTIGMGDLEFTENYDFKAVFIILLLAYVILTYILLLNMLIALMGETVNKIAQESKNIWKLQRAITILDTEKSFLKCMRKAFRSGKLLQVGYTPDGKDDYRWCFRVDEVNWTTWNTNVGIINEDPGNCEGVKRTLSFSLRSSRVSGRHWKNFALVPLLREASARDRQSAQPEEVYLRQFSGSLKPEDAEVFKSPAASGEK

vanilloid receptor (VR1) [3] = target: T1, vanilloid receptor (VR1); experiment: Functional FLIPR Ca2+ influx assay in CHO-K1 cells transfected with the VR1 gene, capsaicin stimulus (Pharmacological Method II); conditions: read-out: inhibition (in percent), Human Capsaicin
[4] = target: T2, vanilloid receptor 1 (VR1/TRPV1) (Rattus norvegicus, UniProt O35433); experiment: Functional FLIPR Ca2+ influx assay on vanilloid receptor 1, capsaicin stimulus (Pharmacological Method I); conditions: for Ki: capsaicin stimulus
T2 construct: The vertebral column is removed from decapitated rats; from tissue; host or cells: primary cells from rat dorsal root ganglia (DRG)
T2 sequence (O35433 whole entry): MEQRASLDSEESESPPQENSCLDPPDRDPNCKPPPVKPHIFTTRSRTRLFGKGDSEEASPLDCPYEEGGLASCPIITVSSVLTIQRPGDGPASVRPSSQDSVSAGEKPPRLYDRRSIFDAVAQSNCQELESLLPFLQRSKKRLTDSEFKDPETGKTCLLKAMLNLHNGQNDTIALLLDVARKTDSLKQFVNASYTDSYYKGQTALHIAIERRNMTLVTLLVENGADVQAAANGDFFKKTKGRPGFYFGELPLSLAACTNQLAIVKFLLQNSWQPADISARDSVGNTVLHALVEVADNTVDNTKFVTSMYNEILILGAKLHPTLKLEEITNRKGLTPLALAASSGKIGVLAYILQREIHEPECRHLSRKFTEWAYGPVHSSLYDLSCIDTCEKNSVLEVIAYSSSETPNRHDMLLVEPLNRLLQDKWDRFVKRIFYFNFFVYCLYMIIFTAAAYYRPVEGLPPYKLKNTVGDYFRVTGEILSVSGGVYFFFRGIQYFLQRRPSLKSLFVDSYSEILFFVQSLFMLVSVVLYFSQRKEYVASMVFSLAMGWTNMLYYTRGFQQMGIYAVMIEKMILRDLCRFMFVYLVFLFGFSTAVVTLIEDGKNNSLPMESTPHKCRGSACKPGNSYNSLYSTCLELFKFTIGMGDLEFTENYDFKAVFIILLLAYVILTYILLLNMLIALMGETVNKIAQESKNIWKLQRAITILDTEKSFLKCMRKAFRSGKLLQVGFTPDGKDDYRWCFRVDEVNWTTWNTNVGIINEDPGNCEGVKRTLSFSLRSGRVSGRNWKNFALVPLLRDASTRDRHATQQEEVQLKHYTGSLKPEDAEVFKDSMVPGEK

[5] = read-out: inhibition (in percent), Human following pH-stimulus
[6] = capsaicin, read-out: inhibition (in percent), Rat Capsaicin

T1 sequence (Q8NER1 whole entry): as the sequence (Q8NER1 whole entry) above

Row | Ki (vanilloid receptor (VR1) [1]) [µM] | IC50 [2] [µM] | Ki [4] [µM] | SMILES | further results
1 | 0.0311 | 0.118 |  | CC1CCN(c2nc(C(F)(F)F)ccc2CNC(=O)C(c2ccc(NS(C)(=O)=O)c(F)c2)C2CCCCC2)CC1 (centres unmarked) [Example 1, 2-Cyclohexyl-2-(3-fluoro-4-(methylsulfonamido)phenyl)-N-((2-(4-methylpiperidin-1-yl)-6-(trifluoromethyl)pyridin-3-yl)methyl)acetamide] | 
2 |  | 1.39 | 0.0987 | CS(=O)(=O)Nc1ccc(C(C(=O)NCc2ccc(C(F)(F)F)nc2SC2CCCCC2)C2CCCCC2)cc1F (centres unmarked) [Example 2, 2-Cyclohexyl-N-((2-(cyclohexylthio)-6-(trifluoromethyl)pyridin-3-yl)methyl)-2-(3-fluoro-4-(methylsulfonamido)phenyl)acetamide] | inhibition at 1 µM (vanilloid receptor (VR1) [3]): 2%; inhibition at 5 µM (vanilloid receptor (VR1) [3]): 31%
3 | 0.0013 | 0.079 |  | CC1CCN(c2nc(C(F)(F)F)ccc2CNC(=O)C(c2ccccc2)c2ccc(NS(C)(=O)=O)c(F)c2)CC1 (centres unmarked) [Example 3, 2-(3-Fluoro-4-(methylsulfonamido)phenyl)-N-((2-(4-methylpiperidin-1-yl)-6-(trifluoromethyl)pyridin-3-yl)methyl)-2-phenylacetamide] | 
4 | 0.0625 | 1.59 |  | CS(=O)(=O)Nc1ccc(C(C(=O)NCc2ccc(C(F)(F)F)nc2SC2CCCCC2)c2ccccc2)cc1F (centres unmarked) [Example 4, N-((2-(Cyclohexylthio)-6-(trifluoromethyl)pyridin-3-yl)methyl)-2-(3-fluoro-4-(methylsulfonamido)phenyl)-2-phenylacetamide] | 
5 | 0.049 | 0.886 | 0.0455 | CC1CCN(c2nc(C(F)(F)F)ccc2CNC(=O)C(C)(C)c2ccc(NS(C)(=O)=O)c(F)c2)CC1 [Example 5, 2-(3-Fluoro-4-(methylsulfonamido)phenyl)-2-methyl-N-((2-(4-methylpiperidin-1-yl)-6-(trifluoromethyl)pyridin-3-yl)methyl)propanamide] | 
6 | 0.0657 |  | 0.0349 | CC(C)(C(=O)NCc1ccc(C(F)(F)F)nc1SC1CCCCC1)c1ccc(NS(C)(=O)=O)c(F)c1 [Example 6, N-((2-(Cyclohexylthio)-6-(trifluoromethyl)pyridin-3-yl)methyl)-2-(3-fluoro-4-(methylsulfonamido)phenyl)-2-methylpropanamide] | inhibition at 0.1 µM ([2]; @ 0.1 μM, read-out: inhibition (in percent), Human following pH-stimulus): 4%; inhibition at 1 µM [2, 5]: 20%; inhibition at 5 µM [2, 5]: 42%; inhibition at 10 µM [2, 5]: 54%
7 | 0.124 |  | 0.0378 | CCC(C)(C(=O)NCc1ccc(C(F)(F)F)nc1N1CCC(C)CC1)c1ccc(NS(C)(=O)=O)c(F)c1 (centres unmarked) [Example 7, 2-(3-Fluoro-4-(methylsulfonamido)phenyl)-2-methyl-N-((2-(4-methylpiperidin-1-yl)-6-(trifluoromethyl)pyridin-3-yl)methyl)butanamide] | inhibition at 1 µM [2, 5]: 0%; inhibition at 5 µM [2, 5]: 15%; inhibition at 10 µM [2, 5]: 18%
8 |  |  |  | CCC(C)(C(=O)NCc1ccc(C(F)(F)F)nc1SC1CCCCC1)c1ccc(NS(C)(=O)=O)c(F)c1 (centres unmarked) [Example 8, N-((2-(Cyclohexylthio)-6-(trifluoromethyl)pyridin-3-yl)methyl)-2-(3-fluoro-4-(methylsulfonamido)phenyl)-2-methylbutanamide] | inhibition at 1 µM (vanilloid receptor (VR1) [3]): 0%; inhibition at 5 µM (vanilloid receptor (VR1) [3]): 80%; inhibition at 1 µM [4, 6]: 26%; inhibition at 5 µM [4, 6]: 99%; inhibition at 5 µM [2, 5]: 0%; inhibition at 10 µM [2, 5]: 20%
9 |  |  |  | CC1CCN(c2nc(C(F)(F)F)ccc2CNC(=O)C2(c3ccc(NS(C)(=O)=O)c(F)c3)CCCC2)CC1 [Example 13, 1-(3-Fluoro-4-(methylsulfonamido)phenyl)-N-((2-(4-methylpiperidin-1-yl)-6-(trifluoromethyl)pyridin-3-yl)methyl)cyclopentanecarboxamide] | inhibition at 1 µM (vanilloid receptor (VR1) [3]): 0%; inhibition at 5 µM (vanilloid receptor (VR1) [3]): 25%; inhibition at 0.1 µM ([4]; @ 0.1 μM, capsaicin, read-out: inhibition (in percent), Rat Capsaicin): 0%; inhibition at 1 µM [4, 6]: 27%; inhibition at 5 µM [4, 6]: 43%
10 |  |  |  | CS(=O)(=O)Nc1ccc(C2(C(=O)NCc3ccc(C(F)(F)F)nc3SC3CCCCC3)CCCCC2)cc1F [Example 16, N-((2-(Cyclohexylthio)-6-(trifluoromethyl)pyridin-3-yl)methyl)-1-(3-fluoro-4-(methylsulfonamido)phenyl)cyclohexanecarboxamide] | inhibition at 1 µM [4, 6]: 15%; inhibition at 5 µM [4, 6]: 69%
11 | 0.0887 | 0.949 | 0.0206 | CC1CCN(c2nc(C(F)(F)F)ccc2CNC(=O)C(c2ccc(NS(C)(=O)=O)c(F)c2)C2CCCC2)CC1 (centres unmarked) [Example 21, 2-Cyclopentyl-2-(3-fluoro-4-(methylsulfonamido)phenyl)-N-((2-(4-methylpiperidin-1-yl)-6-(trifluoromethyl)pyridin-3-yl)methyl)acetamide] | 
12 | 0.103 |  | 0.0313 | CS(=O)(=O)Nc1ccc(C(C(=O)NCc2ccc(C(F)(F)F)nc2SC2CCCCC2)C2CCCC2)cc1F (centres unmarked) [Example 22, N-((2-(Cyclohexylthio)-6-(trifluoromethyl)pyridin-3-yl)methyl)-2-cyclopentyl-2-(3-fluoro-4-(methylsulfonamido)phenyl)acetamide] | inhibition at 1 µM [2, 5]: 0%; inhibition at 5 µM [2, 5]: 27%; inhibition at 10 µM [2, 5]: 46%
13 | 0.0024 | 0.0216 |  | CC1CCN(c2nc(C(F)(F)F)ccc2CNC(=O)C(c2cccc(F)c2)c2ccc(NS(C)(=O)=O)c(F)c2)CC1 (centres unmarked) [Example 34, 2-(3-Fluoro-4-(methylsulfonamido)phenyl)-2-(3-fluorophenyl)-N-((2-(4-methylpiperidin-1-yl)-6-(trifluoromethyl)pyridin-3-yl)methyl)acetamide] | 
14 | 0.0034 | 0.246 | 0.0136 | CC1CCN(c2nc(C(F)(F)F)ccc2CNC(=O)C(c2ccc(F)cc2)c2ccc(NS(C)(=O)=O)c(F)c2)CC1 (centres unmarked) [Example 35, 2-(3-Fluoro-4-(methylsulfonamido)phenyl)-2-(4-fluorophenyl)-N-((2-(4-methylpiperidin-1-yl)-6-(trifluoromethyl)pyridin-3-yl)methyl)acetamide] | 
15 | 0.0429 | 3.14 | 0.109 | Cc1ccccc1C(C(=O)NCc1ccc(C(F)(F)F)nc1N1CCC(C)CC1)c1ccc(NS(C)(=O)=O)c(F)c1 (centres unmarked) [Example 40, 2-(3-Fluoro-4-(methylsulfonamido)phenyl)-N-((2-(4-methylpiperidin-1-yl)-6-(trifluoromethyl)pyridin-3-yl)methyl)-2-o-tolylacetamide] | 
16 | 0.0001 | 0.0867 | 0.0018 | Cc1cccc(C(C(=O)NCc2ccc(C(F)(F)F)nc2N2CCC(C)CC2)c2ccc(NS(C)(=O)=O)c(F)c2)c1 (centres unmarked) [Example 41, 2-(3-Fluoro-4-(methylsulfonamido)phenyl)-N-((2-(4-methylpiperidin-1-yl)-6-(trifluoromethyl)pyridin-3-yl)methyl)-2-m-tolylacetamide] | 
17 | 0.0011 | 0.0316 | 0.0063 | Cc1ccc(C(C(=O)NCc2ccc(C(F)(F)F)nc2N2CCC(C)CC2)c2ccc(NS(C)(=O)=O)c(F)c2)cc1 (centres unmarked) [Example 42, 2-(3-Fluoro-4-(methylsulfonamido)phenyl)-N-((2-(4-methylpiperidin-1-yl)-6-(trifluoromethyl)pyridin-3-yl)methyl)-2-p-tolylacetamide] | 
18 |  |  | 0.158 | Cc1ccc(CC(C(=O)NCc2ccc(C(F)(F)F)nc2N2CCC(C)CC2)c2ccc(NS(C)(=O)=O)c(F)c2)cc1 (centres unmarked) [Example 77, 2-(3-Fluoro-4-(methylsulfonamido)phenyl)-N-((2-(4-methylpiperidin-1-yl)-6-(trifluoromethyl)pyridin-3-yl)methyl)-3-p-tolylpropanamide] | inhibition at 1 µM (vanilloid receptor (VR1) [3]): 0%; inhibition at 5 µM (vanilloid receptor (VR1) [3]): 17%
